Key:
Dihydrofolate reductase = biological target: T1, Dihydrofolate reductase (Homo sapiens, UniProt P00374); test: Inhibition of recombinant human DHFR expressed in Escherichia coli preincubated for 15 mins followed by addition of DHF as substrate and NADPH measured after 60 mins by resazurin/diaphorase coupled assay
T1 sequence (P00374 whole entry): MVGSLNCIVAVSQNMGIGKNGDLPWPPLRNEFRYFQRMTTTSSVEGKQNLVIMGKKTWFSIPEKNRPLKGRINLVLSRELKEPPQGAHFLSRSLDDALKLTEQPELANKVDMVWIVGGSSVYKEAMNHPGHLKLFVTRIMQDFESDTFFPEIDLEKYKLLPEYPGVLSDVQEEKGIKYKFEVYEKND

[1] = biological target: T2, Bifunctional dihydrofolate reductase-thymidylate synthase (Toxoplasma gondii, UniProt Q07422); test: Inhibition of Toxoplasma gondii TS-DHFR expressed in Escherichia coli BL21 preincubated for 15 mins followed by addition of DHF as substrate and NADPH measured after 60 mins by resazurin/diaphorase coupled assay; format: cell-free
T2 sequence (Q07422 whole entry): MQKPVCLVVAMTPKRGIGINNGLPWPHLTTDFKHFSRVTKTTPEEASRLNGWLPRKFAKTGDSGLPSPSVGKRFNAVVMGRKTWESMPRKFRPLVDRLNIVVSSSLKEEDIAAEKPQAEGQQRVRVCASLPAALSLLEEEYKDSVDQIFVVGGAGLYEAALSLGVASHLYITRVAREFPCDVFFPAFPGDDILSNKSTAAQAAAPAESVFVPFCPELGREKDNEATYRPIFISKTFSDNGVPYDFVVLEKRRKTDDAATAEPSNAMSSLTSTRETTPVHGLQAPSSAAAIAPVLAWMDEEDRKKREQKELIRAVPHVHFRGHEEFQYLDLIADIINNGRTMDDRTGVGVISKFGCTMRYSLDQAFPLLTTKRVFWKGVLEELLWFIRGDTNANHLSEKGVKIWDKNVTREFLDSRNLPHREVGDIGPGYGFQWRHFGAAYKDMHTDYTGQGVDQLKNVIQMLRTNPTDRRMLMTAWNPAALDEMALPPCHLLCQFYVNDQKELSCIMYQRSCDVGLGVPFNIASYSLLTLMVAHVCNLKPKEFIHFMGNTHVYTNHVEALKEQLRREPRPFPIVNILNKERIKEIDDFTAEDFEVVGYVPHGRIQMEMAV

[2] = Selectivity ratio of IC50 for human DHFR to IC50 for Toxoplasma gondii DHFR

Row | Structure (SMILES) | IC50 (Dihydrofolate reductase) | IC50 [1] | Ratio IC50 [2]
1 | Nc1ncc(CN2CCN(c3cc(Cl)ccc3OCc3cccc(C(F)(F)F)c3)CC2)c(N)n1 | > 75 µM | 0.95 µM | > 80
2 | Nc1ncc(Cn2cc(-c3cccc(Cl)c3)c3cccnc32)c(N)n1 | > 10 µM | > 10 µM | –
3 | Cc1nc(N)nc(N)c1CN1CCN(c2cccc(-c3cccc(C#N)c3)c2)CC1 | 0.92 µM | 0.2 µM | 4.7
4 | Cc1nc(N)nc(N)c1CN1CCN(c2cc(Cl)ccc2-c2ccccn2)CC1 | 2.1 µM | 0.37 µM | 6.5
5 | Nc1ncc(CN2CCN(c3cccc(C(F)(F)F)c3)CC2)c(N)n1 | 9.2 µM | 80 µM | 0.12
6 | Nc1ncc(Cn2cc(-c3ccc(F)c(F)c3)c3cnccc32)c(N)n1 | > 10 µM | > 10 µM | –
7 | Cn1c(-c2cccc(Cl)c2)cc2c(N)nc(N)nc21 | > 10 µM | > 10 µM | –
8 | Cn1cc(-c2c(N)nc(N)nc2C2CC2)c2ccccc21 | 2.8 µM | 0.46 µM | 6.1
9 | Nc1ncc(Cn2ccc3c(-c4ccc(C(F)(F)F)cc4)cccc32)c(N)n1 | > 10 µM | 2.7 µM | > 3.5

Second part, led by results:

Row | IC50 (Dihydrofolate reductase) | Structure (SMILES) | IC50 [1] | Ratio IC50 [2]
10 | > 10 µM | Cc1nc(N)nc(N)c1C(=O)N1CCN(c2cccc(-c3cccc(C#N)c3)c2)CC1 | 3 µM | > 3.3
11 | > 10 µM | Nc1ncc(Cn2cc(-c3cccc(C(F)(F)F)c3)c3ccccc32)c(N)n1 | 0.98 µM | > 10
12 | 2.5 µM | Nc1nc(N)c(-c2c[nH]c3ccccc23)c(C2CC2)n1 | 0.91 µM | 2.9
13 | > 10 µM | Nc1ncc(CN2CCCN(C(=O)c3cccc(C(F)(F)F)c3)CC2)c(N)n1 | > 10 µM | –
14 | > 10 µM | Cc1nc(N)nc(N)c1C(=O)N1CCN(c2cccc(-c3ccccc3)c2)CC1 | 2.4 µM | > 4
15 | > 10 µM | COc1ccc(-c2c[nH]c3nc(N)nc(OC(C)C)c23)cc1C(F)(F)F | > 10 µM | –
16 | > 10 µM | Nc1nc2[nH]c(-c3cccc(Cl)c3)cc2c(=O)[nH]1 | > 10 µM | –
17 | > 10 µM | Cc1nc(N)nc(N)c1C(=O)N1CCN(c2cc(Cl)ccc2-c2ccccn2)CC1 | > 10 µM | –
18 | 4.2 µM | Nc1nc(Cl)c2cc(-c3cccc(Cl)c3)[nH]c2n1 | > 10 µM | < 1
19 | 0.092 µM | Nc1ncc(N2CCN(c3ccc(Cl)c(Cl)c3)CC2)c(N)n1 | 0.017 µM | 10
20 | > 10 µM | Cn1c(-c2cccc(Cl)c2)cc2c(Cl)nc(N)nc21 | > 10 µM | –
21 | 1.1 µM | Cc1nc(N)nc(N)c1CN1CCN(c2cccc(-c3ccccc3)c2)CC1 | 1.1 µM | 1

— ChEMBL document CHEMBL3865850, “Discovery of Potent and Selective Leads against Toxoplasma gondii Dihydrofolate Reductase via Structure-Based Design” (ACS Med Chem Lett, 2016)
